In one assay the target is T1, recombinant human KDAC1 (Homo sapiens, UniProt Q13547).
T1 construct: purchased BPS Bioscience
The experiment in a line: KDAC inhibition assay, Caliper EZ Reader II. In kind it is biochemical.

A further assay has as its target T2, recombinant human KDAC8 (Homo sapiens, UniProt Q9BY41).
T2 construct: purchased BPS Bioscience
T2 sequence (Q9BY41 1-377): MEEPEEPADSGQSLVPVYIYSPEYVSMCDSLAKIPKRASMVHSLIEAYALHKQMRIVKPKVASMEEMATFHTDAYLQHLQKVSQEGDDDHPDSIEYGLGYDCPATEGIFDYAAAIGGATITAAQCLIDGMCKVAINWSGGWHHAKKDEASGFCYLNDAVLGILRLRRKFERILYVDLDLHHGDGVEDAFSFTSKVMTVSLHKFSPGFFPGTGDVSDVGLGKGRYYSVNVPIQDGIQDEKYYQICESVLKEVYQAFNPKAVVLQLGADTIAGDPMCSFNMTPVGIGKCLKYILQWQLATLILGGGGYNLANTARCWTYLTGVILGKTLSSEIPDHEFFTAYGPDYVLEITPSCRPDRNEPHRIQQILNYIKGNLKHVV
The experiment in a line: KDAC inhibition assay, Caliper EZ Reader II. In kind it is biochemical.

In assay [1] the test system is JLAT 10.6 cells, which have HIV-1-GFP stably integrated. The experiment in a line: Reactivation of HIV from latency in JLAT 10.6 cells (GFP, FACS). The assay is classed as cell-based. The conditions noted are these: J-Lat 10.6, 24 h, read-out: EC50 in reactivating HIV from latency. As to the method:
JLAT 10.6 cells, which have HIV-1-GFP stably integrated, were incubated with the indicated compounds for 24 hours. […] Upon stimulation with an appropriate agent, they can produce HIV as measured by GFP recognition with fluorescent-activated cell sorting (FACS). Cells were fixed and FACS performed for GFP as a surrogate for HIV production using TNF alpha as positive control. Largazoles are SDL256, JMF 1080, and SDL148. Relative activation is normalized to TNF alpha.

The subject of assay [2] is Resting CD4+ T cells isolated from a patient fully suppressed on antiretroviral therapy. Put plainly: Reactivation of virus in resting CD4+ T cells of a suppressed patient (HIV-1 p24 ELISA). The assay is classed as cell-based. To be noted: 1 μM, 48 hours, then co-culture with MOLT4/CCR5 cells 7 days; preliminary data. The text has this:
Cells were washed and co-cultured with MOLT4/CCR5 cells for 7 days. R Cellular supernatants were collected for HIV-1 p24 ELISA. N.R—non reactive.

In a further assay the test system is KDAC1, KDAC2, and KDAC3. To be noted: background statement; cited from earlier work.
For another assay, the target named is T3, recombinant human KDAC3 (Homo sapiens, UniProt O15379).
T3 construct: purchased BPS Bioscience
The experiment in a line: KDAC inhibition assay, Caliper EZ Reader II. In kind it is biochemical.

In a further assay the target is T4, recombinant human KDAC6 (Homo sapiens, UniProt Q9UBN7).
T4 construct: purchased BPS Bioscience
T4 sequence (Q9UBN7 1-1215): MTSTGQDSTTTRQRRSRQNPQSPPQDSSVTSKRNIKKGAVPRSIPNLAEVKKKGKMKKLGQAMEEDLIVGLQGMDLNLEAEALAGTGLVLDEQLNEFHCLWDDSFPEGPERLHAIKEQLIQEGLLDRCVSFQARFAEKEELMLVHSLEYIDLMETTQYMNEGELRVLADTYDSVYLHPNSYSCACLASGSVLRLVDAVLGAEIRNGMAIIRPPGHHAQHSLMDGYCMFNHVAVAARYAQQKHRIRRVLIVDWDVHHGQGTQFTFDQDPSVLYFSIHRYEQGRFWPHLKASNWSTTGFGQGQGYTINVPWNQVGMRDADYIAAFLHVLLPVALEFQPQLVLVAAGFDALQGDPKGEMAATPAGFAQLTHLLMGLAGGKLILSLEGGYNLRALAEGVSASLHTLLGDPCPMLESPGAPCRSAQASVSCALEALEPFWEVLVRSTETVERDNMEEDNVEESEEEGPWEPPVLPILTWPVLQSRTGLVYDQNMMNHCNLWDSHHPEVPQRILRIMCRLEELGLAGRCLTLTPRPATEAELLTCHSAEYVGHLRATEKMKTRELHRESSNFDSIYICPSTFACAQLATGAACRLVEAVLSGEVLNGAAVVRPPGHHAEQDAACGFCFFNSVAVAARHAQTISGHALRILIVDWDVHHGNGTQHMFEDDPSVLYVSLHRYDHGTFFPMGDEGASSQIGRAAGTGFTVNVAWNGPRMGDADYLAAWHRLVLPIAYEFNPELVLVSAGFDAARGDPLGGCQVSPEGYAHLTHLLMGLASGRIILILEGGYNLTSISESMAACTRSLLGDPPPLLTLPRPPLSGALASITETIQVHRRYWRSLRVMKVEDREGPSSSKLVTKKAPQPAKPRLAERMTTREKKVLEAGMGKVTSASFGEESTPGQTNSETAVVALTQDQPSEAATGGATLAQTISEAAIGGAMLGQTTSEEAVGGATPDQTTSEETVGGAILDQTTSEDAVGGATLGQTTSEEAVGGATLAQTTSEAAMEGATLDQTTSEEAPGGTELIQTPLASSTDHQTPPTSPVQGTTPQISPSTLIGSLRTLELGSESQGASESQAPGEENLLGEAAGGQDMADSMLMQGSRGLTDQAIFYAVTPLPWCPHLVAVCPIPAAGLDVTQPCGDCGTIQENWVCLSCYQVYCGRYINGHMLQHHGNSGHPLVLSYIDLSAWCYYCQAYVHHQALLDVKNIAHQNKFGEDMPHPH
Put plainly: KDAC inhibition assay, Caliper EZ Reader II. The assay is classed as biochemical. The conditions noted are these: 10-point dose curve from 30 μM.

Molecules are shown by their SMILES. Where two headings read alike, the source gives them in different places. Some results are limits rather than exact numbers.

A word on the inhibition: it is the change of the read-out against control, counted positive when it falls. By EC50 is commonly meant the concentration needed to bring the measured effect to its halfway point.

T3 sequence (O15379 whole entry): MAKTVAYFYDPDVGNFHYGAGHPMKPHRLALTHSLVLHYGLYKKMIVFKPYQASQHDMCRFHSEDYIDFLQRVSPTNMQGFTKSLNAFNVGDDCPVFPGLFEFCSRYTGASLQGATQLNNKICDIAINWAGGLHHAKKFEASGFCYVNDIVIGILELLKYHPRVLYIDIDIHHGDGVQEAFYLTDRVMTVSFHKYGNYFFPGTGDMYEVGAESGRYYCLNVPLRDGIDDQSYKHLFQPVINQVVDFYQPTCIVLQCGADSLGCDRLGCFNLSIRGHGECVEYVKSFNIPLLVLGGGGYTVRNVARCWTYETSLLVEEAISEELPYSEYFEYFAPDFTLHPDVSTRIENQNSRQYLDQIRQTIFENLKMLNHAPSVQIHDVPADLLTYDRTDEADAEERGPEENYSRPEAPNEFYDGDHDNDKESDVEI
T3 sequence (Q9Y618 395-489 partner limits assumed): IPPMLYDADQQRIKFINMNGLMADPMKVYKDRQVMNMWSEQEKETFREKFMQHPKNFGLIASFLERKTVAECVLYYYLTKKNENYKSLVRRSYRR
T1 sequence (Q13547 whole entry): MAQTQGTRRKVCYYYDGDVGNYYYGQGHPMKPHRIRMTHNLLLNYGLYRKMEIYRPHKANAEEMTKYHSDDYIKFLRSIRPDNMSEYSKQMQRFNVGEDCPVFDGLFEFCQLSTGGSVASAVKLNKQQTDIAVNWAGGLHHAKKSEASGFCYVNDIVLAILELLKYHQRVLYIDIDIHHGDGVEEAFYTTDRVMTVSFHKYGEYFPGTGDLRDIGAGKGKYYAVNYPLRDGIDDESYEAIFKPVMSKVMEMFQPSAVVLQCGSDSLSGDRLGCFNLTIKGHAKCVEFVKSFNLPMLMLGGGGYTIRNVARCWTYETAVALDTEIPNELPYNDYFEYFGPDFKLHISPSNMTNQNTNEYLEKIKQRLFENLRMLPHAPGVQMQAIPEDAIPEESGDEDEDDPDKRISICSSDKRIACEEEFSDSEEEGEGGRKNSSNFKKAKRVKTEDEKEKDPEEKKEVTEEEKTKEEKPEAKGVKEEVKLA

Regarding `CCCCCCCC(=O)SCC/C=C/[C@@H]1CC(=O)NCc2nc(cs2)C2=N[C@@](C)(CS2)C(=O)N[C@@H](C(C)C)C(=O)O1` [Largazole, largazole], at recombinant human KDAC1, the IC50 amounted to 2330 nM. For the same molecule, the inhibition at 30 µM on recombinant human KDAC8 came out at 28%. Further, in assay [1], the EC50 was determined as 150 nM. For the same molecule, the “reactivation of virus from latency, HIV-1 p24 ELISA in culture supernatants” value in assay [2] is listed as “able to reactivate virus from latency”. Further, in the assay on KDAC1, KDAC2, and KDAC3, the “potency against KDAC1, KDAC2, and KDAC3” value is listed as “picomolar range”.

As for `CC(=O)SCC/C=C/[C@@H]1CC(=O)NCc2cc(ccn2)C2=N[C@@](C)(CS2)C(=O)N[C@@H](C(C)C)C(=O)O1` [SD-L-256, reference compound], the IC50 at recombinant human KDAC1 (10-point dose curve from 30 μM) is 3480 nM; on recombinant human KDAC3 (10-point dose curve from 30 μM, read-out: KDAC Inhibition Activity (IC50) KDAC3) it was 470 nM; at recombinant human KDAC3 (read-out: KDAC Inhibition Activity (pIC50) KDAC3 (converted)), 479 nM; at recombinant human KDAC6 it was 1610 nM; at recombinant human KDAC8 (10-point dose curve from 30 μM), more than 30000 nM. Besides, on recombinant human KDAC8, the inhibition at 30 µM came out at 39%. Moreover, the EC50 in assay [1] came out at 1600 nM.
